Data: the supplement of paper PMC11368000

Tests used:
Settings in all cases: exposure time: 90 min
1083 [1] = donor line of iPSC-derived cardiomyocytes; test: POD (EC05) for decrease in beat frequency (negative chronotrope) vs vehicle; higher = less potent (higher point of departure)
How it was run: (§1)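 Points of departure specific to each donor were obtained from hierarchical Bayesian Hill fits to vehicle-normalised beat frequency, decay-to-rise ratio or peak frequency. Thresholds were set at 5% change, or 95% loss in the case of peak frequency. The cells were human iPSC-derived cardiomyocytes from 16 donors, exposed for 90 min at 37 °C to 0.1, 1, 10 and 100 µM (final, 0.5% DMSO), with Ca2+ flux read on a FLIPR Tetra before and after exposure.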

1392 [2] = donor line of iPSC-derived cardiomyocytes; test: as above
How it was run: as §1

1434 [3] = donor line of iPSC-derived cardiomyocytes; test: as above
How it was run: as §1

30145 [4] = donor line of iPSC-derived cardiomyocytes; test: POD (EC05) for increase in beat frequency (positive chronotrope) vs vehicle; higher = less potent (higher point of departure)
How it was run: as §1

1368 = donor line of iPSC-derived cardiomyocytes; test: POD (EC05) for increase in Ca2+ transient decay-to-rise ratio (QT prolongation) vs vehicle; higher = less potent (higher point of departure)
Description: (§2)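 Human iPSC-derived cardiomyocytes from 16 donors were exposed for 90 min at 37 °C to each PFAS at 0.1, 1, 10 and 100 µM in 0.5% DMSO, 384-well plates. Kinetic Ca2+ flux (FLIPR) and Hoechst nuclei counts were normalised to vehicle wells and fitted with a hierarchical Bayesian Hill model to give donor-specific PODs: EC05 for beat-rate increase or decrease and for decay-to-rise ratio increase (QT proxy), EC95 for peak-frequency loss (asystole), EC10 for total cell number loss. 0.03 µM is the lower bound.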

11235 = donor line of iPSC-derived cardiomyocytes; test: as above
Description: as §2

1531 = donor line of iPSC-derived cardiomyocytes; test: as above
Description: as §2

1118 = donor line of iPSC-derived cardiomyocytes; test: as above
Description: as §2

20084 = donor line of iPSC-derived cardiomyocytes; test: as above
Description: as §2

1565 = donor line of iPSC-derived cardiomyocytes; test: as above
Description: as §2

1309 = donor line of iPSC-derived cardiomyocytes; test: as above
Description: as §2

1535 = donor line of iPSC-derived cardiomyocytes; test: as above
Description: as §2

1083 [5] = test: as above
Description: as §2

1392 [6] = test: as above
Description: as §2

30145 [7] = test: as above
Description: as §2

1516 = donor line of iPSC-derived cardiomyocytes; test: as above
Description: as §2

1518 = donor line of iPSC-derived cardiomyocytes; test: as above
Description: as §2

20032 = donor line of iPSC-derived cardiomyocytes; test: as above
Description: as §2

30171 = donor line of iPSC-derived cardiomyocytes; test: as above
Description: as §2

1434 [8] = test: as above
Description: as §2

Row | SMILES | POD vs vehicle 1083 [1] [µM] | POD vs vehicle 1392 [2] [µM] | POD vs vehicle 1434 [3] [µM] | POD vs vehicle 30145 [4] [µM] | POD vs vehicle 1368 [µM] | POD vs vehicle 11235 [µM] | POD vs vehicle 1531 [µM] | POD vs vehicle 1118 [µM] | POD vs vehicle 20084 [µM] | POD vs vehicle 1565 [µM] | POD vs vehicle 1309 [µM] | POD vs vehicle 1535 [µM] | POD vs vehicle 1083 [5] [µM] | POD vs vehicle 1392 [6] [µM] | POD vs vehicle 30145 [7] [µM] | POD vs vehicle 1516 [µM] | POD vs vehicle 1518 [µM] | POD vs vehicle 20032 [µM] | POD vs vehicle 30171 [µM] | POD vs vehicle 1434 [8] [µM]
1 | O=S(=O)(O)CCC(F)(F)C(F)(F)C(F)(F)C(F)(F)C(F)(F)C(F)(F)F [6:2 Fluorotelomer sulfonic acid] | > 100 | > 100 | > 100 | > 100 | > 100 | > 100 | > 100 | > 100 | > 100 | > 100 | > 100 | > 100 | > 100 | > 100 | > 100 | > 100 | > 100 | > 100 | > 100 | > 100
2 | O=C(O)CCC(F)(F)C(F)(F)C(F)(F)C(F)(F)C(F)(F)C(F)(F)C(F)(F)F [3-Perfluoroheptylpropanoic_acid] | > 100 | > 100 | 21 | > 100 | > 100 | > 100 | 25.4 | > 100 | 36.7 | > 100 | > 100 | > 100 | > 100 | > 100 | > 100 | > 100 | > 100 | 33.8 | > 100 | > 100
3 | O=C(O)C=CC(F)(C(F)(F)F)C(F)(F)F [3-(Perfluoroisopropyl)-2-propenoic_acid] | > 100 | > 100 | > 100 | > 100 | > 100 | > 100 | > 100 | > 100 | > 100 | > 100 | > 100 | > 100 | > 100 | > 100 | > 100 | > 100 | > 100 | > 100 | > 100 | > 100
4 | NS(=O)(=O)C(F)(F)C(F)(F)C(F)(F)C(F)(F)C(F)(F)C(F)(F)F [Perfluorohexanesulfonamide] | 25.7 | 91.8 | 9.37 | > 100 | > 100 | > 100 | > 100 | > 100 | > 100 | > 100 | > 100 | 16.8 | 30.8 | > 100 | > 100 | > 100 | > 100 | > 100 | > 100 | > 100
5 | OCC(F)(F)C(F)(F)C(F)(F)C(F)(F)C(F)(F)C(F)F [Dodecafluoroheptanol] | 15.3 | 18 | 18.1 | > 100 | > 100 | > 100 | > 100 | > 100 | > 100 | > 100 | > 100 | > 100 | > 100 | > 100 | > 100 | > 100 | > 100 | 0.504 | > 100 | > 100
6 | O=C(O)C(F)(F)C(F)(F)C(F)(F)C(F)(F)C(F)(F)C(F)(F)C(F)(F)C(F)(F)C(F)(F)F [Perfluorodecanoic_acid] | 18.3 | 27.5 | 12.4 | > 100 | > 100 | > 100 | > 100 | > 100 | > 100 | > 100 | > 100 | > 100 | > 100 | > 100 | > 100 | > 100 | > 100 | > 100 | > 100 | 19.9
7 | O=C(O)C(F)(F)C(F)(F)C(F)(F)C(F)(F)C(F)(F)F [Perfluorohexanoic_acid] | > 100 | > 100 | > 100 | > 100 | > 100 | > 100 | > 100 | > 100 | > 100 | > 100 | > 100 | > 100 | > 100 | > 100 | > 100 | > 100 | > 100 | > 100 | > 100 | > 100
8 | OCCC(F)(F)C(F)(F)C(F)(F)C(F)(F)C(F)(F)C(F)(F)F [6:2 Fluorotelomer alcohol] | 58.7 | > 100 | > 100 | > 100 | > 100 | > 100 | > 100 | > 100 | > 100 | > 100 | > 100 | > 100 | > 100 | > 100 | > 100 | > 100 | > 100 | > 100 | > 100 | > 100
9 | O=C(O)C(F)(F)C(F)(F)C(F)(F)C(F)(F)C(F)(F)C(F)(F)C(F)(F)F [Perfluorooctanoic_acid] | > 100 | > 100 | 26.1 | > 100 | > 100 | > 100 | > 100 | > 100 | > 100 | > 100 | > 100 | > 100 | > 100 | > 100 | > 100 | > 100 | > 100 | > 100 | > 100 | > 100
10 | O=S(=O)(O)C(F)(F)C(F)(F)C(F)(F)C(F)(F)C(F)(F)C(F)(F)F [Perfluorohexanesulfonic_acid] | > 100 | > 100 | 63.6 | > 100 | > 100 | > 100 | > 100 | > 100 | > 100 | > 100 | > 100 | > 100 | > 100 | > 100 | > 100 | > 100 | > 100 | > 100 | 21.2 | > 100
11 | O=S(=O)(O)CCC(F)(F)C(F)(F)C(F)(F)C(F)(F)C(F)(F)C(F)(F)C(F)(F)C(F)(F)F [8:2 Fluorotelomer sulfonic acid] | > 100 | > 100 | 12.8 | > 100 | > 100 | > 100 | 47.4 | > 100 | 21.9 | > 100 | > 100 | > 100 | > 100 | > 100 | > 100 | 38 | > 100 | > 100 | 20.1 | 17.2
12 | O=P(O)(O)CCC(F)(F)C(F)(F)C(F)(F)C(F)(F)C(F)(F)C(F)(F)C(F)(F)C(F)(F)F [((Perfluorooctyl)ethyl)phosphonic_acid] | > 100 | > 100 | > 100 | > 100 | > 100 | > 100 | > 100 | > 100 | > 100 | > 100 | > 100 | > 100 | > 100 | > 100 | > 100 | > 100 | > 100 | > 100 | > 100 | > 100
13 | O=C(O)C=C(C(F)(F)F)C(F)(F)F [3,3-Bis(trifluoromethyl)-2-propenoic_acid] | > 100 | > 100 | > 100 | > 100 | > 100 | > 100 | > 100 | > 100 | > 100 | > 100 | > 100 | > 100 | > 100 | > 100 | > 100 | > 100 | > 100 | > 100 | > 100 | > 100
14 | O=C(O)C(F)(F)C(F)(F)C(F)(F)C(F)(F)F [Perfluoropentanoic_acid] | > 100 | > 100 | > 100 | > 100 | > 100 | > 100 | > 100 | > 100 | > 100 | > 100 | > 100 | > 100 | > 100 | > 100 | > 100 | > 100 | > 100 | > 100 | > 100 | > 100
